Data reported in patent publication US8552002B2 (Novartis AG, priority 2004, dated 2013).

What was measured:
FGFR35 [1] = molecular target: T1, FGFR35 (Homo sapiens, UniProt P22607); test: FGFR35 (cellular assay), proliferation of Ba/F3-TEL-FGFR35 cells; assay type: cell-based; parameters: fused on or other part: N-terminal part of TEL (ETV6), which acts as the oligomerising partner; it is fused to the part of FGFR3 that carries the kinase; P41212 (Transcription factor ETV6); details: 48 hours, read-out: IC50 for the FGFR35 cellular assay
Method: Compounds of the invention are tested for their ability to inhibit transformed Ba/F3-TEL-FGFR35 cells proliferation, which is depended on FGFR35 cellular kinase activity. Ba/F3-TEL-FGFR35 are cultured up to 800,000 cells/mL in suspension, with RPMI 1640 supplemented with 10% fetal bovine serum as the culture medium. Cells are dispensed into 384-well format plate at 5000 cell/well in 50 μL culture medium. Compounds of the invention are dissolved and diluted in dimethylsulfoxide (DMSO). Twelve points 1:3 serial dilutions are made into DMSO to create concentrations gradient ranging typically from 10 mM to 0.05 μM. Cells are added with 50 nL of diluted compounds and incubated for 48 hours in cell culture incubator. AlamarBlue® (TREK Diagnostic Systems), which can be used to monitor the reducing environment created by proliferating cells, are added to cells at final concentration of 10%. After additional four hours of incubation in a 37° C. cell culture incubator, fluorescence signals from reduced AlamarBlue® (Excitation at 530 nm, Emission at 580 nm) are quantified on Analyst GT (Molecular Devices Corp.). IC50 values are calculated by linear regression analysis of the percentage inhibition of each compound at 12 concentrations.
Target sequence in this assay (P22607 472-761 limits assumed, change not shown): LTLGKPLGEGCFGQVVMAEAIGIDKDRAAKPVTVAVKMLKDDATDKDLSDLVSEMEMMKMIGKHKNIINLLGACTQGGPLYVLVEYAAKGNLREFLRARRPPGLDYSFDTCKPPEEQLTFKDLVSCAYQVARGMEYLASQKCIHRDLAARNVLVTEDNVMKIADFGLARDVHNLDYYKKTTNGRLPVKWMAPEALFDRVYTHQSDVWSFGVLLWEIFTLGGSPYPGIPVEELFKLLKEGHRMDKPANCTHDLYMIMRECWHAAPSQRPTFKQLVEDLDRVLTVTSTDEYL

wild type Bcr-abl = molecular target: T2, wild type Bcr-abl (Homo sapiens, UniProt P00519); test: Antiproliferative effect on cells expressing wild type Bcr-abl; assay type: cell-based; details: cell proliferation
T2 construct: the major C-terminal part (exons 2-11) of the c-abl gene; expressed in transfected cells; host or cells: murine 32D (32D-p210) or Ba/F3 cells; the other entry of the earlier key: BCR (P11274, Breakpoint cluster region protein)
T2 sequence (P00519 with tags, fused parts or gaps): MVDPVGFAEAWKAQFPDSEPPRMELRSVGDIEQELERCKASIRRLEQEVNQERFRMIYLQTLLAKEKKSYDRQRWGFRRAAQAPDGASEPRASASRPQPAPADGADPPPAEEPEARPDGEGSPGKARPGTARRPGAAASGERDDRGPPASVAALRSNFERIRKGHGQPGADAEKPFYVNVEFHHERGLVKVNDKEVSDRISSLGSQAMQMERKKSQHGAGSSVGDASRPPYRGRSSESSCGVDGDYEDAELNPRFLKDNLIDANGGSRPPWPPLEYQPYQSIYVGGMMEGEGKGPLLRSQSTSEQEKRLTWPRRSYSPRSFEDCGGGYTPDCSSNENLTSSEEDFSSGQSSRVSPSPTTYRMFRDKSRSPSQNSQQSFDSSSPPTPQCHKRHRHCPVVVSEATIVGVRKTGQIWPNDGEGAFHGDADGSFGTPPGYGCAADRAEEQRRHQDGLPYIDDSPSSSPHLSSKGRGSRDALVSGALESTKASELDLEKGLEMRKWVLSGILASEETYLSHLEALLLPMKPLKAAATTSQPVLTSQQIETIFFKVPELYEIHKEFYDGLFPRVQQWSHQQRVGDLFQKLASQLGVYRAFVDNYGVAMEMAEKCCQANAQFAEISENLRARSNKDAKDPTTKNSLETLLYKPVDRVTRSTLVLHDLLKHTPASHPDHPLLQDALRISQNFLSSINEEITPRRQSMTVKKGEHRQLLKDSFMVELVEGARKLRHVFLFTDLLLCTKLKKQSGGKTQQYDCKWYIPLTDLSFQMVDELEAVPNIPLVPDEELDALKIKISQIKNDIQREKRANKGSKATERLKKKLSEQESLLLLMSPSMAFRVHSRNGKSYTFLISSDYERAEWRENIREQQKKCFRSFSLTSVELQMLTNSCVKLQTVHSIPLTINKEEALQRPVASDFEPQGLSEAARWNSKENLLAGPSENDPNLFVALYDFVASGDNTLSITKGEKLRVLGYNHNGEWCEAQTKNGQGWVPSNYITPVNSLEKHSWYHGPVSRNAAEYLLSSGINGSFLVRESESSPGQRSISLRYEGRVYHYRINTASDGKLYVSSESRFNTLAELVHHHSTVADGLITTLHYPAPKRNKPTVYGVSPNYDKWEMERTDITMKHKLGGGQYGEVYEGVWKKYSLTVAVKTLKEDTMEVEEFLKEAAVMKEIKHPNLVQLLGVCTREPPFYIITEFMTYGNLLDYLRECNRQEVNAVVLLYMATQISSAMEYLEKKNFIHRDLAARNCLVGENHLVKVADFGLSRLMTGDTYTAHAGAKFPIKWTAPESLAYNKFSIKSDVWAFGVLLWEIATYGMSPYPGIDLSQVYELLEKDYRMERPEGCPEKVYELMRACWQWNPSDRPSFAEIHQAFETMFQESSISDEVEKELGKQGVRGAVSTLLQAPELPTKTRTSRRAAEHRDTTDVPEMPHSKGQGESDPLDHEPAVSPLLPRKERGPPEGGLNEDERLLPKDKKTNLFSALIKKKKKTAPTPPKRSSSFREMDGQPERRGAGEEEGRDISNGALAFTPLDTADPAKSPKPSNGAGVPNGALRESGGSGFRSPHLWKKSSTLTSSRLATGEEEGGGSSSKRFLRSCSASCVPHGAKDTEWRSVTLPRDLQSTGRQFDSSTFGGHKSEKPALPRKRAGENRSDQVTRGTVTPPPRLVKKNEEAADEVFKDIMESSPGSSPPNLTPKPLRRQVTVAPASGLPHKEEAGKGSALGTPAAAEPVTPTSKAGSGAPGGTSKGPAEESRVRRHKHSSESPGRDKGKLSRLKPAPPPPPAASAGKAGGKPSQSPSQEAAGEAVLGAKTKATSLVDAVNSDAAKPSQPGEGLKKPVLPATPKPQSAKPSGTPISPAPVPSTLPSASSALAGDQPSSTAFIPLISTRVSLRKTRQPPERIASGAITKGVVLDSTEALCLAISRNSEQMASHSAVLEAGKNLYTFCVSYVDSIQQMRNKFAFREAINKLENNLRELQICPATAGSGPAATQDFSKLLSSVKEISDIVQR
Method: 32D-p210 cells are plated into 96 well TC plates at a density of 15,000 cells per well. 50 μL of two fold serial dilutions of the test compound (Cmax is 40 μM) are added to each well (STI571 is included as a positive control). After incubating the cells for 48 hours at 37° C., 5% CO2, 15 μL of MTT (Promega) is added to each well and the cells are incubated for an additional 5 hours. The optical density at 570 nm is quantified spectrophotometrically and IC50 values, the concentration of compound required for 50% inhibition, determined from a dose response curve.
Compounds of the invention are tested for their antiproliferative effect on Ba/F3 cells expressing either wild type or the mutant forms of BCR-Abl (G250E, E255V, T315I, F317L, M351T) that confers resistance or diminished sensitivity to STI571. The antiproliferative effect of these compounds on the mutant-BCR-Abl expressing cells and on the non transformed cells were tested at 10, 3.3, 1.1 and 0.37 μM as described above (in media lacking IL3). The IC50 values of the compounds lacking toxicity on the untransformed cells were determined from the dose response curves obtained as describe above.

FGFR35 [2] = molecular target: T1, FGFR35; test: Upstate KinaseProfiler radio-enzymatic filter binding assay; assay type: biochemical; parameters: purchased Upstate; details: read-out: percentage inhibition of FGFR35
Method: Compounds of the invention are assessed for their ability to inhibit individual members of a panel of kinases (a partial, non-limiting list of kinases includes: Abl, BCR-Abl, BMX, FGFR35, Lck, JNK1, JNK2, CSK, RAF, MKK6 and P38). The compounds are tested in duplicates at a final concentration of 10 μM following this generic protocol. Note that the kinase buffer composition and the substrates vary for the different kinases included in the “Upstate KinaseProfiler™” panel. Kinase buffer (2.5 μL, 10×—containing MnCl2 when required), active kinase (0.001-0.01 Units; 2.5 μL), specific or Poly(Glu4-Tyr) peptide (5-500 μM or 0.01 mg/ml) in kinase buffer and […] are mixed in an eppendorf on ice. A Mg/ATP mix (10 μL; 67.5 (or 33.75) mM MgCl2, 450 (or 225) μM ATP and 1 μCi/μl [γ-^32P]-ATP (3000 Ci/mmol)) is added and the reaction is incubated at about 30° C. for about 10 minutes. […] The assay squares are transferred to a scintillation vial, 5 ml scintillation cocktail are added and ^32P incorporation (cpm) to the peptide substrate is quantified with a Beckman scintillation counter. Percentage inhibition is calculated for each reaction.
Target sequence in this assay (P22607 23-806): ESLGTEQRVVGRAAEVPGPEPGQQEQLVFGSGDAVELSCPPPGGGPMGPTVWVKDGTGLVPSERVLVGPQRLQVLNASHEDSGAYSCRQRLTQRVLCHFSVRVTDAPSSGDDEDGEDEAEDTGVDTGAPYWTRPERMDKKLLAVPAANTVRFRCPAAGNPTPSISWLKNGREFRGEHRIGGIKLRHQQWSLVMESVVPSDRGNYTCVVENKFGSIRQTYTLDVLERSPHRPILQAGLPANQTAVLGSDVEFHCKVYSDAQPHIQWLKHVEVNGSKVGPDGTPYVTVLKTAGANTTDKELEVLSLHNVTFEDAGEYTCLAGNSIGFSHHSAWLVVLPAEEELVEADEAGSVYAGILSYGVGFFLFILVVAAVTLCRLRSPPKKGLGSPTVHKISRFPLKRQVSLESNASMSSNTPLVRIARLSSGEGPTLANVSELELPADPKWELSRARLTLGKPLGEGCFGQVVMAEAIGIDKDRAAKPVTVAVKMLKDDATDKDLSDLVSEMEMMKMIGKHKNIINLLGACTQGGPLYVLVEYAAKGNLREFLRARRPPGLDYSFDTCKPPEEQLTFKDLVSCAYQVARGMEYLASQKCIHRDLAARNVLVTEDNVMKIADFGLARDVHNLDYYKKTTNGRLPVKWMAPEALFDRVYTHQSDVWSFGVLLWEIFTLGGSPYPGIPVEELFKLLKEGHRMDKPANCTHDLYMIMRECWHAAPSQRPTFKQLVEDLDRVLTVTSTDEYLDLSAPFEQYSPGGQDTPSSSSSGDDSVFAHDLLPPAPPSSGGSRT

## Cc1ccc(NC(=O)c2cccc(C(F)(F)F)c2)cc1NC(=O)N(CCCN1CCCC1=O)c1cc(N)ncn1 [Example 215, N-(3-{3-(6-Amino-pyrimidin-4-yl)-3-[3-(2-oxo-pyrrolidin-1-yl)-propyl]-ureido}-4-methyl-phenyl)-3-trifluoromethyl-benzamide]
FGFR35 [1]
  GI50: 15 nM
Wild type Bcr-abl
  IC50: 10 nM
FGFR35 [2]
  inhibition at 10 µM: 99%
